Measured values from ChEMBL document CHEMBL5325393, “A mini-review on synthesis and antiviral activity of natural product oxetanocin A derivatives” (Bioorg Med Chem, 2022).
Values after ≈ are worked out from the molar mass of the structure shown.

How the values were obtained:
Human betaherpesvirus 5 [1] = assay: Antiviral activity against HCMV AD169 infected in HEL cells assessed as reduction in virus induced cytopathogenicity by plaque reduction assay; format: functional, organism-based; details: Human betaherpesvirus 5, AD169, HEL
Human alphaherpesvirus 1 [2] = assay: Antiviral activity against HSV-1 KOS infected in African green monkey Vero cells assessed as reduction in virus induced cytopathogenicity by plaque reduction assay; format: functional, organism-based; details: Human alphaherpesvirus 1, KOS
[3] = tested on: Human immunodeficiency virus 1; assay: Antiviral activity against HIV-1 HTLV-IIIB infected in human MT4 cells assessed as reduction in virus induced cytopathogenicity by immunofluorescence assay; format: functional, organism-based; details: Human immunodeficiency virus 1, HTLV-IIIB
Hepatitis B virus [4] = assay: Antiviral activity against HBV infected in human HepG2.2.15 cells assessed as reduction in virus induced cytopathogenicity by Southern blot analysis; format: functional, organism-based
Human alphaherpesvirus 2 [5] = assay: Antiviral activity against HSV-2 186 infected in African green monkey Vero cells assessed as reduction in virus induced cytopathogenicity by plaque reduction assay; format: functional, organism-based; details: Human alphaherpesvirus 2, 186, Vero
Human alphaherpesvirus 2 [6] = assay: Potency index, ratio of acyclovir EC50 to test compound EC50 for antiviral activity against HSV-2 186 infected in African green monkey Vero cells assessed as reduction in virus induced cytopathogenicity by plaque reduction assay; format: functional
Human alphaherpesvirus 1 [7] = assay: Potency index, ratio of acyclovir EC50 to test compound EC50 for antiviral activity against HSV-1 KOS infected in African green monkey Vero cells assessed as reduction in virus induced cytopathogenicity by plaque reduction assay; format: functional
[8] = tested on: Human immunodeficiency virus 1; assay: Antiviral activity against HIV-1 assessed as inhibition of viral replication; format: functional, organism-based
Human alphaherpesvirus 2 [9] = assay: Antiviral activity against HSV-2 assessed as inhibition of viral growth; format: functional, organism-based
Human alphaherpesvirus 1 [10] = assay: Antiviral activity against HSV-1 assessed as inhibition of viral growth; format: functional, organism-based
HUVEC [11] = assay: Angiogenic activity against HUVEC cells assessed as relative area of tube formation at 100 uM incubated for 10 days by tube formation assay; format: functional, Homo sapiens; details: time 10 day
Human alphaherpesvirus 1 [12] = assay: Antiviral activity against thymidine kinase positive HSV-1 E-377 infected in HFF cells assessed as reduction in viral replication incubated for 3 days by crystal violet staining based microplate reader analysis; format: functional, organism-based; details: Human alphaherpesvirus 1, E-377, HFF, 72 h
Human alphaherpesvirus 3 [13] = assay: Antiviral activity against thymidine kinase positive VZV OKA infected in HFF cells assessed as reduction in viral replication incubated for 10 days by crystal violet staining based microplate reader analysis; format: functional, organism-based; details: Human alphaherpesvirus 3, OKA, 240 h
Human alphaherpesvirus 1 [14] = assay: (§1) Antiviral activity against lethal systemic HSV-1 123 infected in po dosed Swiss mouse model assessed as increase in animal survival administered as single double strength loading dose at 7 hrs post-inoculation and single strength dose at 23, 31, 47, 55, 71, 79 hrs post-inoculation and monitored for 21 days; format: functional; details: time 21 day
[15] = Antiproliferative against human HFF cells assessed as inhibition of cell growth by neutral red uptake analysis; format: toxicity, cell-based
Human alphaherpesvirus 3 [16] = assay: Antiviral activity against thymidine kinase positive VZV V8602/5-1-1 infected in HFF cells assessed as reduction in viral replication incubated for 10 days by crystal violet staining based microplate reader analysis; format: functional, organism-based; details: Human alphaherpesvirus 3, V8602/5-1-1, HFF, 240 h
Human alphaherpesvirus 3 [17] = assay: Antiviral activity against thymidine kinase positive VZV V8907 infected in HFF cells assessed as reduction in viral replication incubated for 10 days by crystal violet staining based microplate reader analysis; format: functional, organism-based; details: Human alphaherpesvirus 3, V8907, HFF, 240 h
Human alphaherpesvirus 1 [18] = assay: Antiviral activity against thymidine kinase positive HSV-1 123 infected in HFF cells assessed as reduction in viral replication incubated for 3 days by crystal violet staining based microplate reader analysis; format: functional, organism-based; details: Human alphaherpesvirus 1, 123, HFF, 72 h
Human alphaherpesvirus 3 [19] = assay: Antiviral activity against thymidine kinase positive VZV DKG infected in HFF cells assessed as reduction in viral replication incubated for 10 days by crystal violet staining based microplate reader analysis; format: functional, organism-based; details: Human alphaherpesvirus 3, DKG, 240 h
Human alphaherpesvirus 3 [20] = assay: Antiviral activity against thymidine kinase positive VZV Ellen infected in HFF cells assessed as reduction in viral replication incubated for 10 days by crystal violet staining based microplate reader analysis; format: functional, organism-based; details: Human alphaherpesvirus 3, Ellen, 240 h
Human alphaherpesvirus 1 [21] = assay: Antiviral activity against thymidine kinase positive HSV-1 SC-16 infected in HFF cells assessed as reduction in viral replication incubated for 3 days by crystal violet staining based microplate reader analysis; format: functional, organism-based; details: Human alphaherpesvirus 1, SC-16, HFF, 72 h
Human alphaherpesvirus 1 [22] = assay: as §1, with “intracerebral” for “systemic”; format: functional; details: time 21 day
MT4 = assay: Cytotoxicity against human MT4 cells assessed as inhibition of cell growth; format: functional
[23] = tested on: Human immunodeficiency virus 1; assay: Antiviral activity against HIV-1 HTLV-IIIB infected in human MT4 cells assessed as inhibition of viral replication incubated for 4 days by immunofluorescence assay; format: functional, organism-based; details: Human immunodeficiency virus 1, HTLV-IIIB, MT4, 96 h
Human betaherpesvirus 5 [24] = assay: Antiviral activity against HCMV AD169 infected in HELF cells by plaque reduction assay; format: functional, organism-based; details: Human betaherpesvirus 5, AD169, HELF
[25] = tested on: Human immunodeficiency virus; assay: Antiviral activity against HIV infected in human MT4 cells by plaque reduction assay; format: functional, organism-based; details: Human immunodeficiency virus 1, MT4
[26] = Cytotoxicity against human CCD-18Co cells assessed as inhibition of cell growth by colorimetric method; format: toxicity, cell-based
[27] = Cytotoxicity against human HB611 cells assessed as inhibition of cell growth incubated for 48 hrs by colorimetric method; format: functional
[28] = Cytotoxicity against human Detroit 551 cells assessed as inhibition of cell growth by colorimetric method; format: toxicity, cell-based
Hepatitis B virus [29] = assay: Antiviral activity against HBV infected in human HB611 cells assessed as inhibition of viral DNA replication incubated for 15 days by SDS-PAGE based autoradiographic analysis; format: functional, organism-based; details: HB611, 360 h
[30] = tested on: Human immunodeficiency virus 1; assay: Antiviral activity against HIV-1 HTLV-IIIB infected in human MT4 cells assessed as inhibition of viral replication; format: functional, organism-based; details: Human immunodeficiency virus 1, HTLV-IIIB
Cytomegalovirus = assay: Antiviral activity against CMV AD-169 infected in HEL cells assessed as reduction in virus plaque formation; format: functional, organism-based; details: Human betaherpesvirus 5, AD-169, HEL
Murid betaherpesvirus 1 = assay: Antiviral activity against MCMV Smith infected in MEF cells assessed as reduction in plaque formation by plaque reduction assay; format: functional; details: Murid betaherpesvirus 1, Smith, read-out: ED50 (the source's name)
HUVEC [31] = assay: Angiogenic activity against HUVEC cells assessed as relative area of tube formation at 100 uM incubated for 96 hrs by Alexa fluor 488 staining based analysis; format: functional, Homo sapiens
[32] = tested on: Human immunodeficiency virus 1; assay: Antiviral activity against HIV-1 III B infected in PBMC assessed as inhibition of viral replication at 100 microM relative to control; format: functional; details: Human immunodeficiency virus 1, III B
[33] = tested on: Human immunodeficiency virus 2; assay: Antiviral activity against HIV-2 D194 infected in PBMC assessed as inhibition of viral replication at 45 microM relative to control; format: functional; details: Human immunodeficiency virus 2, D194, PBMC

With `Nc1ncnc2c1ncn2[C@@H]1C[C@](F)(CO)[C@H]1CO` the EC50 (Human betaherpesvirus 5 [1]) was 0.18 µg/mL (≈ 0.673 µM), the EC50 (Human alphaherpesvirus 1 [2]) was 2.72 µg/mL (≈ 10.2 µM) and the EC50 [3] was 3.73 µg/mL (≈ 14 µM). The EC50 (Hepatitis B virus [4]) was 0.41 µg/mL (≈ 1.53 µM), the EC50 (Human alphaherpesvirus 2 [5]) was 1.33 µg/mL (≈ 4.98 µM) and the “Ratio EC50” value (Human alphaherpesvirus 2 [6]) was 7. For the same compound, the “Ratio EC50” value (Human alphaherpesvirus 1 [7]) was 7.

For `Nc1ncnc2c1ncn2N1C[C@H](CO)[C@H]1CO`, the EC50 [8] was 0.37 µg/mL (≈ 1.48 µM), the EC50 (Human alphaherpesvirus 2 [9]) was 34.9 µg/mL (≈ 139 µM) and the EC50 (Human alphaherpesvirus 1 [10]) was 33.2 µg/mL (≈ 133 µM).

Work on `O=c1[nH]cnc2c1ncn2[C@H]1CC[C@@H](CO)O1` [DIDANOSINE] yielded an EC50 [8] of 0.46 µg/mL (≈ 1.95 µM) and an EC50 [3] of 0.46 µg/mL (≈ 1.95 µM).

For `Nc1ccn([C@@H]2CS[C@H](CO)O2)c(=O)n1` [LAMIVUDINE], the EC50 (Hepatitis B virus [4]) was 0.009 µg/mL (≈ 0.0393 µM) and the EC50 (Human alphaherpesvirus 2 [5]) was 0.39 µg/mL (≈ 1.7 µM).

For `COc1nc(N)c2ncn([C@@H]3C[C@H](CO)[C@H]3CO)c2n1`, the Ratio (HUVEC [11]) was 1.87.

`Cc1cn([C@@H]2O[C@H](CO)[C@H]2CO)c(=O)[nH]c1=O` showed an EC50 (Human alphaherpesvirus 1 [12]) of 0.012 µM, an EC50 (Human alphaherpesvirus 3 [13]) of 0.01 µM and an ED50 (Human alphaherpesvirus 1 [14]) of 142 mg/kg.day. For the same compound, the IC50 [15] was over 100 µM, the EC50 (Human alphaherpesvirus 3 [16]) was 0.01 µM and the EC50 (Human alphaherpesvirus 3 [17]) was 0.01 µM. It also gave an EC50 (Human alphaherpesvirus 1 [18]) of 0.012 µM, an EC50 (Human alphaherpesvirus 3 [19]) of 0.01 µM and an EC50 (Human alphaherpesvirus 3 [20]) of 0.01 µM. It also gave an EC50 (Human alphaherpesvirus 1 [21]) of 0.012 µM and an ED50 (Human alphaherpesvirus 1 [22]) of 211 mg/kg.day.

`O=c1[nH]cnc2c1ncn2[C@@H]1O[C@H](CO)[C@H]1CO` gave a CC50 (MT4) of 330 µM, an EC50 [23] of 2.2 µM and an IC50 (Human betaherpesvirus 5 [24]) of 18 µM.

`Nc1ncnc2c1ncn2[C@@H]1O[C@H](CO)[C@@H]1O` gave an IC50 [25] of 0.54 µg/mL (≈ 2.28 µM).

For `Nc1nc2c(ncn2N2C[C@H](CO)[C@H]2CO)c(=O)[nH]1`, the EC50 [8] was 0.46 µg/mL (≈ 1.73 µM), the EC50 (Human alphaherpesvirus 2 [9]) was 6.32 µg/mL (≈ 23.7 µM) and the EC50 (Human alphaherpesvirus 1 [10]) was 5.36 µg/mL (≈ 20.1 µM).

With `Cc1cn([C@H]2C[C@H](N=[N+]=[N-])[C@@H](CO)O2)c(=O)[nH]c1=O` [ZIDOVUDINE] the EC50 [8] was 0.003 µg/mL (≈ 0.0112 µM).

Compound `Nc1nc2c(ncn2[C@@H]2O[C@H](CO)[C@H]2CO)c(=O)[nH]1` has an IC50 [26] of over 300 µM, a CC50 [27] of over 1000 µM and an IC50 [28] of over 300 µM. It also gave an EC50 [23] of 2.2 µM, an IC50 (Hepatitis B virus [29]) of 1.5 µM and an IC50 (Human betaherpesvirus 5 [24]) of 1 µM.

`Nc1nc(Cl)nc2c1ncn2[C@@H]1O[C@H](CO)[C@H]1CO` showed an IC50 [30] of 0.44 µM.

`O=c1[nH]c(=O)c2ncn([C@@H]3O[C@H](CO)[C@H]3CO)c2[nH]1` showed an EC50 [23] of over 100 µM and an IC50 (Human betaherpesvirus 5 [24]) of over 50 µM.

Work on `C=C1C[C@@H](n2cnc3c(=O)[nH]c(N)nc32)[C@@H]1CO` yielded an EC50 (Cytomegalovirus) of 70 µg/mL (≈ 283 µM).

For `Nc1nc2c(ncn2COC(CO)CO)c(=O)[nH]1` [GANCICLOVIR], the EC50 (Human betaherpesvirus 5 [1]) was 0.71 µg/mL (≈ 2.78 µM) and the EC50 (Murid betaherpesvirus 1) was 1 µg/mL (≈ 3.92 µM).

Work on `Nc1nc(I)nc2c1ncn2[C@@H]1C[C@H](CO)[C@H]1CO` yielded a Ratio (HUVEC [31]) of 2.01.

Work on `Nc1nc2c(ncn2[C@H]2C[C@@](F)(CO)C2)c(=O)[nH]1` yielded an inhibition at 100 µM [32] of 30% and an inhibition at 45 µM [33] of 50%.

Work on `O=C(Nc1ncnc2c1ncn2[C@@H]1O[C@H](CO)[C@H]1O)c1ccccc1` yielded an IC50 [25] of 5.5 µg/mL (≈ 16.1 µM).
